Assay results reported in US9018175B2 (Takeda GmbH, priority 2009, dated 2015).

Assays:
PDE4B1 = molecular target: T1, PDE4B1 (Homo sapiens, UniProt Q07343); test: Inhibition of PDE4B1 activity (SPA, [3H]cAMP); type: biochemical; conditions: recombinant PDE4B1 expressed in SF21 cells; 0.5 pM [sic] cAMP; values given as bins; read-out: PDE4B1 inhibitory values measured as −logIC50 (converted)
T1 construct: made in house; host or cells: SF21 insect cells (baculovirus; pCR-Bac vector)
Procedure: The PDE4B1 (GB no. L20966) was a gift of Prof. M. Conti (Stanford University, USA). It was amplified from the original plasmid (pCMV5) via PCR with primers Rb18 (5′-[…]-3′) and Rb10 (5′-[…]-3′) and cloned into the pCR-Bac vector (Invitrogen, Groningen, NL).
The recombinant baculovirus was prepared by means of homologous recombination in SF9 insect cells. The expression plasmids were cotransfected with Baculo-Gold DNA (Pharmingen, Hamburg) using a standard protocol (Pharmingen, Hamburg). Wt virus-free recombinant virus supernatants were selected using plaque assay methods. After that, high-titre virus supernatants were prepared by amplifying 3 times. PDE4B1 was expressed in SF21 cells by infecting 2×10^6 cells/ml with an MOI (multiplicity of infection) between 1 and 10 in the serum-free medium Insect Express Sf9-S2 (PAA, Pasching, Austria). The cells were cultured at 28° C. for 48-72 hours, after which they were pelleted for 5-10 min at 1000×g and 4° C.
The SF21 insect cells were resuspended, at a concentration of approx. 10^7 cells/ml, in ice-cold (4° C.) homogenization buffer (20 mM Tris, pH 8.2, containing the following additions: 140 mM NaCl, 3.8 mM KCl, 1 mM EGTA, 1 mM MgCl2, 10 mM e-mercaptoethanol, 2 mM benzamidine, 0.4 mM Pefablock, 10 pM leupeptin, 10 pM pepstatin A, 5 pM trypsin inhibitor) and disrupted by ultrasonication. The homogenate was then centrifuged for 10 min at 1000, g and the supernatant was stored at −80° C. until subsequent use (see below). The protein content was determined by the Bradford method (BioRad, Munich) using BSA as the standard.
PDEB1 activities were measured in a 96-well platform using SPA (scintillation proximity assay) yttrium silicate beads (RPNQ1050 from GE Healthcare). In a first step the PDE activity operates hydrolysis of either [^3H] cAMP (substrate) into [^3H] 5′AMP. In a second step substrate and product are distinguished following addition of SPA yttrium silicate beads. Indeed, in the presence of zinc sulphate the linear [^3H] […] Close proximity of bound [^3H] […] The test volume is 100 pl and contains 20 mM Tris buffer (pH 7.4), 0.1 mg/ml of BSA, 5 mM Mg^2+, […] (including about 50,000 cpm of [3H]cAMP), 1 pl of the respective substance dilution in DMSO and sufficient recombinant PDE (1000, g supernatant, see above) to ensure that 10-20% of the cAMP is converted under the said experimental conditions. […] After a preincubation of 5 min at 37° C., the reaction is started by adding the substrate (cAMP) and the assays are incubated for a further 15 min; after that, they are stopped by adding SPA beads (50 pl). In accordance with the manufacturer's instructions, the SPA beads had previously been resuspended in water, but were then diluted 1:3 (v/v) in water; the diluted solution also contains 3 mM IBMX to ensure a complete PDE activity stop. After the beads have been sedimented (>30 min), the MTP's are analyzed in commercially available luminescence detection devices. The corresponding IC50 values of the compounds for the inhibition of PDE4B1 activity are determined from the concentration-effect curves by means of non-linear regression.

human PDE5 = molecular target: T2, human PDE5 (Homo sapiens, UniProt O76074); test: Inhibition of PDE5 activity (SPA, [3H]cGMP, platelet lysate); type: biochemical; conditions: PDE5 from human platelet lysate; values given as bins; read-out: PDE5A inhibitory values measured as −logIC50 (converted)
T2 construct: from tissue; host or cells: human platelets from fresh donor blood (10,000 g supernatant of sonicated platelets)
Procedure: As a source for human PDE5, platelets are used. For that purpose, 150 ml fresh blood from human donors anticoagulated with citrate [final concentration 0.3% (w/v)] is centrifuged at 200 g for 10 min to obtain the so-called platelet-rich-plasma (PRP) as a supernatant. 1/10 volume of ACD solution (85 mM Na3-citrate, 111 mM D-glucose, 71 mM citric acid, pH 4.4) is added to 9/10 volume of PRP. After centrifugation (1,400 g, 10 min) the cell pellet is resuspended in 3 ml homogenization buffer (NaCl 140 mM, KCl 3.8 mM, EGTA (ethylene glycol tetraacetic acid) 1 mM, MgCl2 1 mM, Tris-HCl 20 mM, beta-mercaptoethanol 1 mM, pH 8.2) plus protease-inhibitor mix giving rise to the final concentrations of 0.5 mM Pefablock (Roche), 10 μM Leupeptin, 5 μM Trypsininhibitor, 2 mM Benzamidin and 10 μM Pepstatin A. The suspension is sonified and thereafter centrifuged for 15 min at 10,000 g. The resulting supernatant (platelet lysate) is used for enzymatic testings.
PDE5 activities were measured in a 96-well platform using SPA (scintillation proximity assay) yttrium silicate beads (RPNQ1050 from GE Healthcare). In a first step the PDE activity operates hydrolysis of either [^3H] cGMP (substrate) into [^3H] 5′GMP. In a second step substrate and product are distinguished following addition of SPA yttrium silicate beads. Indeed, in the presence of zinc sulphate the linear [^3H] […] Close proximity of bound [^3H] […] The test volume is 100 pl and contains 20 mM Tris buffer (pH 7.4), 0.1 mg of BSA (bovine serum albumin)/ml, 5 mM Mg^2+, 1 μM motapizone (PDE3 Inhibitor), 10 nM PDE2 inhibitor 2-(3,4-dimethoxybenzyl)-7-[(1R,2R)-2-hydroxy-1-(2-phenylethyl)propyl]-5-methylimidazo[5,1-f][1,2,4]triazin-4(3H)-one, […] (cyclic guanosine monophosphate) (including about 50,000 cpm of [3H]cGMP as a tracer), 1 pl of the respective compound dilution in dimethylsulfoxide (DMSO) and sufficient PDE5-containing platelet lysat (10,000, g supernatant, see above) to ensure that 10-20 wt % of the cGMP is converted under the said experimental conditions. […] After a preincubation of 5 min at 37° C., the reaction is started by adding the substrate (cGMP) and the assay is incubated for a further 15 min; after that, it is stopped by adding SPA beads (50 pl). In accordance with the manufacturer's instructions, the SPA beads had previously been resuspended in water, but are then diluted 1:3 (v/v) in water; the diluted solution also contains 3 mM […]3-isobutyl-1-methylxanthine (IBMX) to ensure a complete PDE activity stop. After the beads have been sedimented (>30 min), the MTP's are analyzed in commercially available luminescence detection devices. The corresponding IC50 values of the compounds for the inhibition of PDE activity are determined from the concentration-effect curves by means of non-linear regression.

T1 sequence (Q07343 whole entry): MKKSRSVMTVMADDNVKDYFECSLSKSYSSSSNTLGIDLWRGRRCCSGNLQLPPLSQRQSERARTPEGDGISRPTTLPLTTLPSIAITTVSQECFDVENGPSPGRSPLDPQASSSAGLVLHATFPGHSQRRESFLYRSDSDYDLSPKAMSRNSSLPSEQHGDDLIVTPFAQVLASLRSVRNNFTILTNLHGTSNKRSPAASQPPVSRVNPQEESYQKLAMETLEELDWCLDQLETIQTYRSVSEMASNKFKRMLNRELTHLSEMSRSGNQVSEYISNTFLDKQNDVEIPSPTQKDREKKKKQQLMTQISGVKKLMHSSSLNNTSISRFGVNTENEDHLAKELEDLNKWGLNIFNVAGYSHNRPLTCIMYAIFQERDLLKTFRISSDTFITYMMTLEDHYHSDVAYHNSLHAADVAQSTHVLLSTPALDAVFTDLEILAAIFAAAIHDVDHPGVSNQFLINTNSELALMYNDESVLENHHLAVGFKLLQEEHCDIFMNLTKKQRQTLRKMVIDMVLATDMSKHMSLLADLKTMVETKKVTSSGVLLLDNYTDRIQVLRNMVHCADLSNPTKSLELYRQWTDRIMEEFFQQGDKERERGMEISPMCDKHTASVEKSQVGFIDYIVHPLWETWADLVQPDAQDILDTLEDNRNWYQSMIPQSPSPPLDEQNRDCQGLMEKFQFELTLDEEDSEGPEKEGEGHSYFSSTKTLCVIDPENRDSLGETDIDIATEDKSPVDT

Structure (SMILES)	IC50 (PDE4B1) [nM]	IC50 (human PDE5) [nM]
CCOc1cc2c(cc1OC)C(c1ccc(C(=O)N3CCC(n4c(=O)c5sc(-c6ccccc6)cc5n(Cc5ncc(CC)o5)c4=O)CC3)cc1)=N[C@@H]1CCSC[C@H]21 [Example 1, 3-[1-({4-[(4aR,10bR)-9-ethoxy-8-methoxy-3,4,4a,10b-tetrahydro-1H-thiopyrano[4,3-c]isoquinolin-6-yl]phenyl}carbonyl)piperidin-4-yl]-1-[(5-ethyl-1,3-oxazol-2-yl)methyl]-6-phenylthieno[3,2-d]pyrimidine-2,4(1H,3H)-dione]	1 to 10	< 10
CCOc1cc2c(cc1OC)C(c1ccc(C(=O)N3CCC(n4c(=O)c5sc(-c6ccccc6)cc5n(Cc5cnc(CC)o5)c4=O)CC3)cc1)=N[C@@H]1CCSC[C@H]21 [Example 9, 3-[1-({4-[(4aR,10bR)-9-ethoxy-8-methoxy-3,4,4a,10b-tetrahydro-1H-thiopyrano[4,3-c]isoquinolin-6-yl]phenyl}carbonyl)piperidin-4-yl]-1-[(2-ethyl-1,3-oxazol-5-yl)methyl]-6-phenylthieno[3,2-d]pyrimidine-2,4(1H,3H)-dione]	1 to 10	10 to 100
CCOc1cc2c(cc1OC)C(c1ccc(C(=O)N3CCC(n4c(=O)c5sc(-c6cc(F)ccc6OC)cc5n(Cc5nnn(CC)n5)c4=O)CC3)cc1)=N[C@@H]1CCSC[C@H]21 [Example 34, 3-[1-({4-[(4aR,10bR)-9-ethoxy-8-methoxy-3,4,4a,10b-tetrahydro-1H-thiopyrano[4,3-c]isoquinolin-6-yl]phenyl}carbonyl)piperidin-4-yl]-1-[(2-ethyl-2H-tetrazol-5-yl)methyl]-6-(5-fluoro-2-methoxyphenyl)thieno[3,2-d]pyrimidine-2,4(1H,3H)-dione]	> 10	10 to 100
CCOc1cc2c(cc1OC)C(c1cccc(C(=O)N3CCC(n4c(=O)c5sc(-c6ccccc6)cc5n(Cc5nnn(CC)n5)c4=O)CC3)c1)=N[C@@H]1CCSC[C@H]21 [Example 26, 3-[1-({3-[(4aR,10bR)-9-ethoxy-8-methoxy-3,4,4a,10b-tetrahydro-1H-thiopyrano[4,3-c]isoquinolin-6-yl]phenyl}carbonyl)piperidin-4-yl]-1-[(2-ethyl-2H-tetrazol-5-yl)methyl]-6-phenylthieno[3,2-d]pyrimidine-2,4(1H,3H)-dione]	> 10	< 10
CCOc1cc2c(cc1OC)C(c1ccc(C(=O)N3CCC(n4c(=O)c5sc(-c6ccccc6)cc5n(Cc5nnn(CC)n5)c4=O)CC3)cc1)=NC1CC[S+]([O-])CC21 (single isomer, unassigned) [Example 24]	> 10	< 10
CCOc1cc2c(cc1OC)C(c1ccc(C(=O)N3CCC(n4c(=O)c5sc(-c6ccccc6F)cc5n(Cc5nnn(CC)n5)c4=O)CC3)cc1)=N[C@@H]1CCSC[C@H]21 [Example 38, 3-[1-({4-[(4aR,10bR)-9-ethoxy-8-methoxy-3,4,4a,10b-tetrahydro-1H-thiopyrano[4,3-c]isoquinolin-6-yl]phenyl}carbonyl)piperidin-4-yl]-1-[(2-ethyl-2H-tetrazol-5-yl)methyl]-6-(2-fluorophenyl)thieno[3,2-d]pyrimidine-2,4(1H,3H)-dione]	> 10	< 10
CCOc1cc2c(cc1OC)C(c1ccc(C(=O)N3CCC(n4c(=O)c5sc(-c6ccccc6)cc5n(Cc5ncc(C)s5)c4=O)CC3)cc1)=N[C@@H]1CCSC[C@H]21 [Example 12, 3-[1-({4-[(4aR,10bR)-9-ethoxy-8-methoxy-3,4,4a,10b-tetrahydro-1H-thiopyrano[4,3-c]isoquinolin-6-yl]phenyl}carbonyl)piperidin-4-yl]-1-[(5-methyl-1,3-thiazol-2-yl)methyl]-6-phenylthieno[3,2-d]pyrimidine-2,4(1H,3H)-dione]	1 to 10	10 to 100
CCOc1cc2c(cc1OC)C(c1ccc(C(=O)N3CCC(n4c(=O)c5sc(-c6cccc(F)c6F)cc5n(Cc5nnn(CC)n5)c4=O)CC3)cc1)=N[C@@H]1CCSC[C@H]21 [Example 42, 6-(2,3-difluorophenyl)-3-[1-({4-[(4aR,10bR)-9-ethoxy-8-methoxy-3,4,4a,10b-tetrahydro-1H-thiopyrano[4,3-c]isoquinolin-6-yl]phenyl}carbonyl)piperidin-4-yl]-1-[(2-ethyl-2H-tetrazol-5-yl)methyl]thieno[3,2-d]pyrimidine-2,4(1H,3H)-dione]	> 10	10 to 100
CCOc1cc2c(cc1OC)C(c1cccc(C(=O)N3CCC(n4c(=O)c5sc(-c6ccccc6F)cc5n(Cc5nnn(CC)n5)c4=O)CC3)c1)=N[C@@H]1CCSC[C@H]21 [Example 39]	1 to 10	< 10
CCOc1cc2c(cc1OC)C(c1cccc(C(=O)N3CCC(n4c(=O)c5sc(-c6ccccc6)cc5n(Cc5nc(CC)no5)c4=O)CC3)c1)=N[C@@H]1CCSC[C@H]21 [Example 27, 3-[1-({3-[(4aR,10bR)-9-ethoxy-8-methoxy-3,4,4a,10b-tetrahydro-1H-thiopyrano[4,3-c]isoquinolin-6-yl]phenyl}carbonyl)piperidin-4-yl]-1-[(3-ethyl-1,2,4-oxadiazol-5-yl)methyl]-6-phenylthieno[3,2-d]pyrimidine-2,4(1H,3H)-dione]	1 to 10	< 10
